Experimental findings from ChEMBL document CHEMBL5104198, “Probing Factor Xa Protein-Ligand Interactions: Accurate Free Energy Calculations and Experimental Validations of Two Series of High-Affinity Ligands” (J Med Chem, 2022) are described below.

For one experiment, the target named is T1, Coagulation factor X (Homo sapiens, UniProt P00742). As to the kind of experiment: Inhibition of human fXa at 100 uM using Cbz-D-Arg-Gly-L-Arg-pNA as substrate preincubated for 30 mins followed by substrate addition and measured after 60 mins by […] method relative to control. The note with it: time 90.0 min.
T1 sequence (P00742 41-179 limits assumed): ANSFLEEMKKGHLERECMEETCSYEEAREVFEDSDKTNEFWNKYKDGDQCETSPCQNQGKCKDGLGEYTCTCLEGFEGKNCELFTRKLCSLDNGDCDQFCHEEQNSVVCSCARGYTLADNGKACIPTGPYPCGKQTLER
T1 sequence (P00742 235-488 limits assumed): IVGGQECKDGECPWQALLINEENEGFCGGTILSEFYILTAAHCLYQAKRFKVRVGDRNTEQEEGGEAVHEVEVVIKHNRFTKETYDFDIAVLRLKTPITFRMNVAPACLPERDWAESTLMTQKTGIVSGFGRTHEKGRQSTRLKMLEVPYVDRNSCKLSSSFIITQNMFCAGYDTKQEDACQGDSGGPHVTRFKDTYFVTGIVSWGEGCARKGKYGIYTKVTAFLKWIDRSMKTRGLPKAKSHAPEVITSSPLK
Turning to `CC(C)N1CCC(NC(=O)c2ccn(CC(=O)Nc3ccc(Cl)cc3)c2)CC1`, the inhibition is 66%.

The target in a further experiment is T1, Coagulation factor X. Kind of experiment: Inhibition of human fXa assessed as inhibition constant using Cbz-D-Arg-Gly-L-Arg-pNA as substrate preincubated for 30 mins followed by substrate addition and measured after 60 mins by […] method.
Conditions: not given
Turning to `CC(C)N1CCC(NC(=O)c2cccn2CC(=O)Nc2ccc(Cl)cc2)CC1`, the inhibition constant Ki came out at 51 nM. On the same count and under the same terms, next, `CC(C)N1CCC(NC(=O)c2cn(CC(=O)Nc3ccc(Cl)cc3)cn2)CC1`: 20500 nM; `CC(C)N1CCC(NC(=O)c2cn(CC(=O)Nc3ccc(Cl)cc3)c3ccccc23)CC1`: 5120 nM; `CC(C)N1CCC(NC(=O)c2ccn(Cc3cc(-c4ccc(Cl)s4)on3)n2)CC1`: 37 nM. The same measure, in the same setting: next, `CC(C)N1CCC(NC(=O)c2c3ccccc3nn2Cc2cc(-c3ccc(Cl)s3)on2)CC1`: 8 nM; `CC(C)N1CCC(NC(=O)c2cc3ccccc3n2CC(=O)Nc2ccc(F)cc2)CC1`: 63 nM. The same measure, in the same setting: next, `CC(C)N1CCC(NC(=O)c2cc3ccccc3n2Cc2cc(-c3cccs3)on2)CC1`: 162 nM; `CC(C)N1CCC(NC(=O)c2nn(Cc3cc(-c4ccc(Cl)s4)on3)c3ccccc23)CC1`: 9 nM; `CC(C)N1CCC(NC(=O)c2cc3ccccc3n2CC(=O)Nc2ccccc2)CC1`: 204 nM. As for `CC(C)N1CCC(NC(=O)c2nc3ccccc3n2Cc2cc(-c3ccc(Cl)s3)on2)CC1`, the Ki turned out to be 0.5 nM. Same read-out and setting: next, `CC(C)N1CCC(NC(=O)c2nn(CC(=O)Nc3ccc(Cl)cc3)c3ccccc23)CC1`: 1740 nM; `CC(C)N1CCC(NC(=O)c2cc3ccccc3n2Cc2cc(-c3ccc(I)s3)on2)CC1`: 188 nM; `CC(C)N1CCC(NC(=O)c2ccn(CC(=O)Nc3ccc(Cl)cc3)n2)CC1`: 204 nM. On the same count and under the same terms, next, `CC(C)N1CCC(NC(=O)c2cc3cccnc3n2CC(=O)Nc2ccc(Cl)cc2)CC1`: 11 nM. For the compound `C#Cc1ccc(-c2cc(Cn3c(C(=O)NC4CCN(C(C)C)CC4)cc4ccccc43)no2)s1`, the Ki was 13 nM.

For `CC(C)N1CCC(NC(=O)c2cn(Cc3cc(-c4ccc(Cl)s4)on3)c3ncccc23)CC1`, the Ki turned out to be 65 nM. Still for that read-out and setting: next, `CC(C)N1CCC(NC(=O)c2ccn(Cc3cc(-c4ccc(Cl)s4)on3)c2)CC1`: 1240 nM.

As to `CC(C)N1CCC(NC(=O)c2ccnn2Cc2cc(-c3ccc(Cl)s3)on2)CC1`, the Ki worked out at 52 nM. Take `CC(C)N1CCC(NC(=O)c2cc3cccnc3n2Cc2cc(-c3ccc(Cl)s3)on2)CC1`: the Ki was 4 nM. On the same count and under the same terms, next, `CC(C)N1CCC(NC(=O)c2nc3ccccc3n2CC(=O)Nc2ccc(Cl)cc2)CC1`: 6 nM. Same read-out and setting: next, `Cc1ccc(NC(=O)Cn2c(C(=O)NC3CCN(C(C)C)CC3)cc3ccccc32)cc1`: 56 nM.

In the case of `CC(C)N1CCC(NC(=O)c2cc3ccccc3n2CC(=O)Nc2ccc(I)cc2)CC1`, the Ki amounted to 7 nM.

`CC(C)N1CCC(NC(=O)c2cccn2Cc2cc(-c3ccc(Cl)s3)on2)CC1`: the Ki was determined as 57 nM. Same read-out and setting: next, `CC(C)N1CCC(NC(=O)c2cn(Cc3cc(-c4ccc(Cl)s4)on3)c3ccccc23)CC1`: 241 nM. For `CC(C)N1CCC(NC(=O)c2cc3ccccc3n2Cc2cc(-c3ccc(Br)s3)on2)CC1`, the Ki turned out to be 12 nM. On to `Cc1ccc(-c2cc(Cn3c(C(=O)NC4CCN(C(C)C)CC4)cc4ccccc43)no2)s1`, for which the Ki turned out to be 55 nM. Still for that read-out and setting: next, `CC(C)N1CCC(NC(=O)c2cn(CC(=O)Nc3ccc(Cl)cc3)c3ncccc23)CC1`: 2930 nM; `CC(C)N1CCC(NC(=O)c2cn(Cc3cc(-c4ccc(Cl)s4)on3)cn2)CC1`: 14800 nM; `CC(C)N1CCC(NC(=O)c2cc3ccccc3n2Cc2cc(-c3ccc(F)s3)on2)CC1`: 70 nM. On the same count and under the same terms, next, `C#Cc1ccc(NC(=O)Cn2c(C(=O)NC3CCN(C(C)C)CC3)cc3ccccc32)cc1`: 49 nM.
